System: cancer cell lines of Table 2
Assay: Multiplexed cytotoxicity assay: apoptosis (activated caspase-3; Cal_X2, Cal_X5, Max_Fold_Change)
Format: cell-based
Experimental: Cells are grown in RPMI1640, 10% FBS, 2 mM L-alanyl-L-Glutamine, 1 mM Na pyruvate or a special medium in a humidified atmosphere of 5% CO2 at 37° C. Cells are seeded into 384-well plates and incubated in a humidified atmosphere of 5% CO2 at 37° C. Compounds are added 24 h post cell seeding. At the same time, a time zero untreated cell plate is generated. After a 72 hour incubation period, cells are fixed and stained with fluorescently labeled antibodies and nuclear dye to allow visualization of nuclei, apoptotic cells and mitotic cells. Apoptotic cells are detected using an anti-active caspase-3 antibody. Mitotic cells are detected using an anti phospho-histone-3 antibody. Compounds are serially diluted 3.16-fold and assayed over 10 concentrations in a final assay concentration of 0.1% DMSO from the highest test concentration of 10 μM. Automated fluorescence microscopy was carried out using a Molecular Devices ImageXpress Micro XL high-content imager, and images are collected with a 4× objective.
The activated caspase-3 marker labels cells from early to late stage apoptosis. Concentrations of test compound that cause a 5-fold induction in the caspase-3 signal (Cal_X5) indicate significant apoptosis induction. The maximal induction of caspase 3 by compound in comparison with DMSO control is reported as Max_Fold_Change.
In Another Experiment, Cells were Grown in RPMI1640, 10% FBS, 2 mM L-alanyl-L-Glutamine, 1 mM Na pyruvate or a special medium in a humidified atmosphere of 5% CO2 at 37° C. Cells were seeded into 384-well plates and incubated in a humidified atmosphere of 5% CO2 at 37° C. Compounds were added 24 h post cell seeding. At the same time, a time zero untreated cell plate was generated. After a 72 hour incubation period, cells were fixed and stained with fluorescently labeled antibodies and nuclear dye to allow visualization of nuclei, apoptotic cells and mitotic cells. Apoptotic cells were detected using an anti-active caspase-3 antibody. Mitotic cells were detected using an anti phospho-histone-3 antibody. Compounds were serially diluted 3.16-fold and assayed over 10 concentrations in a final assay concentration of 0.1% DMSO from the highest test concentration of 10 μM. Automated fluorescence microscopy was carried out using a Molecular Devices ImageXpress Micro XL high-content imager, and images were collected with a 4× objective.
The activated caspase-3 marker labels cells from early to late stage apoptosis. Concentrations of test compound that cause a 2-fold (Cal-X2) or 5-fold induction in the caspase-3 signal (Cal_X5) indicated significant apoptosis induction. The maximal induction of caspase 3 by compound in comparison with DMSO control was reported as Max_Fold_Change.

C[C@]1(C(N)=O)CC[C@@H](n2c(Nc3c(Cl)cc(Cl)cc3Cl)nc3cnc(N[C@@H]4CCOC[C@H]4F)nc32)CC1 [Compound 1, cis-4-[2-{[(3S,4R)-3-fluorooxan-4-yl]amino}-8-(2,4,6-trichloroanilino)-9H-purin-9-yl]-1-methyl cyclohexane-1-carboxamide]
CalX2 (639V, Bladder): 0.0841 µM | CalX5 (639V, Bladder): 0.465 µM | Max fold change (639V, Bladder): 6.33 | CalX2 (647V, Bladder): 2.7413 µM | CalX5 (647V, Bladder): 4.45 µM | Max fold change (647V, Bladder): 19.29 | CalX2 (769P, Kidney): 0.2023 µM | CalX5 (769P, Kidney): 5.11 µM | Max fold change (769P, Kidney): 5.67 | CalX2 (786O, Kidney): 10 µM | CalX5 (786O, Kidney): 10 µM | Max fold change (786O, Kidney): 0.83 | CalX2 (A7, Skin, Melanoma): 5.0814 µM | CalX5 (A7, Skin, Melanoma): 9.4 µM | Max fold change (A7, Skin, Melanoma): 5.51 | CalX2 (A101D, Skin, Melanoma): 0.4207 µM | CalX5 (A101D, Skin, Melanoma): 3.71 µM | Max fold change (A101D, Skin, Melanoma): 7.93 | CalX2 (A375, Skin, Melanoma): 0.0673 µM | CalX5 (A375, Skin, Melanoma): 0.0827 µM | Max fold change (A375, Skin, Melanoma): 103.79 | CalX2 (A498, Kidney): 0.5562 µM | CalX5 (A498, Kidney): 10 µM | Max fold change (A498, Kidney): 4.72 | CalX2 (A704, Kidney): 10 µM | CalX5 (A704, Kidney): 10 µM | Max fold change (A704, Kidney): 0.96 | CalX2 (A2058, Skin, Melanoma): 0.065 µM | CalX5 (A2058, Skin, Melanoma): 0.204 µM | Max fold change (A2058, Skin, Melanoma): 11.68 | CalX2 (ACHN, Kidney): 0.78 µM | CalX5 (ACHN, Kidney): 10 µM | Max fold change (ACHN, Kidney): 2.97 | CalX2 (AU565, Breast): 3.8749 µM | CalX5 (AU565, Breast): 7.14 µM | Max fold change (AU565, Breast): 14.18 | CalX2 (BC1, Lymphoma): 5.1005 µM | CalX5 (BC1, Lymphoma): 6.54 µM | Max fold change (BC1, Lymphoma): 8.72 | CalX2 (BCP1, Lymphoma): 4.8663 µM | CalX5 (BCP1, Lymphoma): 7.36 µM | Max fold change (BCP1, Lymphoma): 6.56 | CalX2 (BFTC905, Bladder): 0.0179 µM | CalX5 (BFTC905, Bladder): 0.0414 µM | Max fold change (BFTC905, Bladder): 45.3 | CalX2 (BT20, Breast): 10 µM | CalX5 (BT20, Breast): 10 µM | Max fold change (BT20, Breast): 1.81 | CalX2 (BT474, Breast): 10 µM | CalX5 (BT474, Breast): 10 µM | Max fold change (BT474, Breast): 0.94 | CalX2 (BV173, Leukemia): 0.4959 µM | CalX5 (BV173, Leukemia): 10 µM | Max fold change (BV173, Leukemia): 2.91 | CalX2 (C32, Skin, Melanoma): 0.0451 µM | CalX5 (C32, Skin, Melanoma): 0.0778 µM | Max fold change (C32, Skin, Melanoma): 110.9 | CalX2 (C32TG, Skin, Melanoma): 0.0608 µM | CalX5 (C32TG, Skin, Melanoma): 0.117 µM | Max fold change (C32TG, Skin, Melanoma): 42.82 | CalX2 (CA46, Lymphoma): 3.2395 µM | CalX5 (CA46, Lymphoma): 8.08 µM | Max fold change (CA46, Lymphoma): 9.46 | CalX2 (CAKI1, Kidney): 0.2015 µM | CalX5 (CAKI1, Kidney): 10 µM | Max fold change (CAKI1, Kidney): 4.12 | CalX2 (CAKI2, Kidney): 0.1631 µM | CalX5 (CAKI2, Kidney): 0.449 µM | Max fold change (CAKI2, Kidney): 6.26 | CalX2 (CCRFCEM, Leukemia): 3.4279 µM | CalX5 (CCRFCEM, Leukemia): 6.95 µM | Max fold change (CCRFCEM, Leukemia): 12.74 | CalX2 (CEMC1, Leukemia): 4.1828 µM | CalX5 (CEMC1, Leukemia): 5.22 µM | Max fold change (CEMC1, Leukemia): 11.27

— patent US10576085B2, “Substituted aminopurine compounds, compositions thereof, and methods of treatment therewith” (Signal Pharmaceuticals, LLC, priority 2016, dated 2020)
